According to article PMC11346435, “Regulation of Rubisco activity by interaction with chloroplast metabolites” (Biochemical Journal, 2024):
Like-named read-outs stand apart in the source and are kept apart here.

How the values were obtained:
[1] = target: T1, Rubisco (ribulose-1,5-bisphosphate carboxylase/oxygenase), carbamylated rice enzyme (Oryza sativa, UniProt P0C512); assay: […]CO2 incorporation assay with purified Rubisco, dose-response and Vmax/Km kinetics; assay type: biochemical; conditions: read-out: % inhibition at 0.3 μM
T1 construct: gene rbcL; Rubisco purified from rice leaves (cv. Nipponbare), L8S8 complex, carbamylated; with Rubisco small subunit (L8S8 holoenzyme)
T1 sequence (Q0INY7 47-175, other chains not shown): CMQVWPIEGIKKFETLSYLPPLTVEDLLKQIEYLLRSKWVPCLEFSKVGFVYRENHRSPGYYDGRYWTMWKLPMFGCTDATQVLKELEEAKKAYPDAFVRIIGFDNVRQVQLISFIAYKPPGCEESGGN

[2] = target: T1, Rubisco (ribulose-1,5-bisphosphate carboxylase/oxygenase), carbamylated rice enzyme; assay: biochemical; design: 14CO2 incorporation by purified activated rice Rubisco; apparent Ki from Michaelis-Menten kinetics; conditions: noncompetitive-like, apparent Ki
Experimental: Water was used as control and for each metabolite an intermediate and the highest concentration were used, with the exceptions of CABP for which the maximum concentration was 0.2 µM (as at the maximum concentration 0.3 µM the activity was very low) and for 3-PGA we used 8 and 12 mM (as these were the concentrations that affected Rubisco activity under saturating substrate concentrations). Basic assay buffer (100 mM Bicine-NaOH, pH 8.2, 20 mM MgCl2 and 2 mM KH2PO4) was sparged with compressed air which passed through soda lime and 1 M NaOH to remove CO2. […] The incubation with metabolite and activity were performed as described above. Vmax and Km were calculated using the Michaelis-Menten equation [58]. […] The incubation and activity were performed as described above and the activity was expressed as % of control samples (where control is 100%). Given the constraints associated with two substrate Rubisco activity and its interaction with tight binding inhibitions, we used a simplistic approximation to estimate apparent inhibitor constants (Kiapp) based on the Michaelis-Menten equations [59] (eqn 1) and on the ‘quotient velocity plot’ [60] (eqn 2). Where [I] is the inhibitor concentration and α was estimated according to the inhibition type: […]

[3] = target: T1, Rubisco (ribulose-1,5-bisphosphate carboxylase/oxygenase), carbamylated rice enzyme; assay: […]CO2 incorporation assay with purified Rubisco, dose-response and Vmax/Km kinetics (competitive inhibition); assay type: biochemical; conditions: read-out: % inhibition at 12 mM
[4] = system: O=C(COP(=O)(O)O)[C@H](O)[C@H](O)COP(=O)(O)O; assay: purified protein; conditions: Mg2+; carbamylated Lys201 (activator CO2) catalytic site
[5] = target: T1, Rubisco (ribulose-1,5-bisphosphate carboxylase/oxygenase), carbamylated rice enzyme; assay: […]CO2 incorporation assay with purified Rubisco, dose-response and Vmax/Km kinetics; assay type: biochemical
[6] = Eq. 1 (Michaelis-Menten), read-out: Ki^app (Eq. 1)
[7] = Eq. 2 (quotient velocity plot), read-out: Ki^app (Eq. 2)

Molecule | Ki [2, 6] | Ki [2, 7] | other results
O=C(O)[C@@](O)(COP(=O)(O)O)[C@H](O)[C@H](O)COP(=O)(O)O [CABP] | 120 ± 20 nM | 100 ± 20 nM | inhibition at 0.3 µM [1]: ~86%
O=C(O)[C@H](O)COP(=O)(O)O [3-PGA] |  |  | inhibition at 12000 µM [3]: ~30%
Rubisco (ribulose-1,5-bisphosphate carboxylase/oxygenase), carbamylated rice enzyme (Oryza sativa Japonica Group) |  |  | Km [4]: 78.08 ± 3.29 µM
O=C(O)[C@@](O)(COP(=O)(O)O)[C@H](O)[C@H](O)CO [CA1P] | 440 ± 80 nM | 440 ± 10 nM | 14CO2 incorporation assay with purified Rubisco, dose-response and Vmax/Km kinet [5]: activity decreases by half at 0.3
